Measurements: patent publication US20190134005A1 (BioMarin Pharmaceutical Inc., priority 2016, published 2019)
Where two headings read alike, the source gives them in different places.

Molecular target: T1, human CGT (Homo sapiens, UniProt Q16880)
T1 sequence (Q16880 21-541): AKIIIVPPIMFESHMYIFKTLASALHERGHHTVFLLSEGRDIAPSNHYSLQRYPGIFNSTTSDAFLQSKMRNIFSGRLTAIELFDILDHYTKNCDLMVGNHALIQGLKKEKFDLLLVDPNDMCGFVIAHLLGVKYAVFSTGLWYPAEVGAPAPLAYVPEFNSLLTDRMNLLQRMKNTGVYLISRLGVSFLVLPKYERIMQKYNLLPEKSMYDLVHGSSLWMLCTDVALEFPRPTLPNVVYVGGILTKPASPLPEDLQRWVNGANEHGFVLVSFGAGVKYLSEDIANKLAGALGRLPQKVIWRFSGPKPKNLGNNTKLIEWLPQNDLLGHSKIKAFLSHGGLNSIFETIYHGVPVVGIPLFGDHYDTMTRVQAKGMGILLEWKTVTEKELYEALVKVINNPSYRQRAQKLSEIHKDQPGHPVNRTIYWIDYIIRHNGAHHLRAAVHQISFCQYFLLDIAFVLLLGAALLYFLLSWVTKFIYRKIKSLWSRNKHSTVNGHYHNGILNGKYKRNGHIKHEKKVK
Test: Assay 1: CGT Enzymatic Assay (RapidFire/MS/MS, 0.01% Tween 80)
Type: biochemical
Conditions: Table 1, Compounds of Formula (I) and Formula (II), CGT enzymatic assay, read-out: IC50

[1] = C6-NBD-dihydro-galactosylceramide readout

Row | Structure (SMILES) | IC50 [nM] | IC50 [1] [nM]
1 | C[C@]1(c2cccc(C(F)(F)F)c2)C(O)N(c2ccc(Cl)cc2)C(=O)N1c1ccc(Cl)cc1 (stereo partly drawn) [Example 190-1, (4S)-1,3-bis(4-chlorophenyl)-5-hydroxy-4-methyl-4-(3-(trifluoromethyl)phenyl)imidazolidin-2-one] | > 50000 | 
2 | COc1ccccc1C1(O)C(=O)N(c2ccc(Br)cc2)C(=O)N1c1ccc(Br)cc1 (stereo not shown) [Example 206, 1,3-bis(4-bromophenyl)-5-hydroxy-5-(2-methoxyphenyl)imidazolidine-2,4-dione] | > 50000 | 
3 | CC(C)[C@@H]1N(c2ccc(C(F)(F)F)cc2)C(=O)N(c2ccc(C(F)(F)F)cc2)C1(O)c1cccc(OC(F)(F)F)c1 (stereo partly drawn) [Example 196-1, (5S)-4-hydroxy-5-isopropyl-4-(3-(trifluoromethoxy)phenyl)-1,3-bis(4-(trifluoromethyl)phenyl)imidazolidin-2-one] | < 1000 | 
4 | Cc1ccc(N2C(=O)N(c3ccc(C#N)cc3)C(O)(c3cccc(OC(F)(F)F)c3)C2(C)C)cc1 (stereo not shown) [Example 314, 4-(5-hydroxy-4,4-dimethyl-2-oxo-3-(p-tolyl)-5-(3-(trifluoromethoxy)phenyl)imidazolidin-1-yl)benzonitrile] |  | < 1000
5 | N#Cc1cccc(C2(O)N(c3ccc(Cl)cc3)C(=O)N(c3ccc(Cl)cc3)C23CCCC3)c1 (stereo not shown) [Compound 135, 3-(1,3-bis(4-chlorophenyl)-4-hydroxy-2-oxo-1,3-diazaspiro[4.4]nonan-4-yl)benzonitrile] | < 1000 | 
6 | CCCCOc1ccc(C2(O)C(=O)N(c3ccc(Br)cc3)C(=O)N2c2ccc(Br)cc2)cc1 (stereo not shown) [Example 182, 1,3-bis(4-bromophenyl)-5-(4-butoxyphenyl)-5-hydroxyimidazolidine-2,4-dione] | > 50000 | 
7 | CC1(C)N(c2ccc(Cl)cc2)C(=O)N(c2ccc(Cl)cc2)C1(O)c1cccc(C(F)(F)F)c1 (stereo not shown) [Compound 134, 1,3-bis(4-chlorophenyl)-4-hydroxy-5,5-dimethyl-4-(3-(trifluoromethyl)phenyl)imidazolidin-2-one] | < 1000 | 
8 | CC1(C)N(c2ccc(Cl)cc2)C(=O)N(c2ccc(Cl)cc2)C1(O)c1cccc(C2CCO2)c1 (stereo not shown) [Example 324-1, 1,3-bis(4-chlorophenyl)-4-hydroxy-5,5-dimethyl-4-(3-(oxetan-2-yl)phenyl)imidazolidin-2-one] |  | < 1000
9 | CCC1N(c2ccc(Cl)cc2)C(=O)N(c2ccc(Cl)cc2)C1(O)c1cccc(Cl)c1 (stereo not shown) [Compound 81, 4-(3-chlorophenyl)-1,3-bis(4-chlorophenyl)-5-ethyl-4-hydroxyimidazolidin-2-one] | < 1000 | 
10 | O=c1n(-c2ccc(Cl)cc2)c(-c2cccc(Cl)c2)c(C2CCCO2)n1-c1ccc(Cl)cc1 (stereo not shown) [Compound 254, 4-(3-chlorophenyl)-1,3-bis(4-chlorophenyl)-5-(tetrahydrofuran-2-yl)-1,3-dihydro-2H-imidazol-2-one] | 1000 to 10000 | 
11 | C[C@H]1N(c2ccc(Cl)cc2)C(=O)N(c2ccc(Cl)cc2)C1(O)c1cccc(Cl)c1 (single isomer, unassigned) [Compound 62-2] | < 1000 | 
12 | CC(C)c1cccc(C2(O)CN(c3ccc(Br)cc3)C(=O)N2c2ccc(Br)cc2)c1 (stereo not shown) [Compound 59, 1,3-bis(4-bromophenyl)-4-hydroxy-4-(3-isopropylphenyl)imidazolidin-2-one] | 1000 to 10000 | 
13 | CCOc1cccc(C2(O)CN(c3ccc(Br)cc3)C(=O)N2c2ccc(Br)cc2)c1 (stereo not shown) [Compound 79, 1,3-bis(4-bromophenyl)-4-(3-ethoxyphenyl)-4-hydroxyimidazolidin-2-one] | 1000 to 10000 | 
14 | O=C1N(c2ccc(Br)cc2)[C@@H](c2ccccc2)C(O)(c2ccccc2)N1c1ccc(Br)cc1 (stereo partly drawn) [Compound 86-1, (5S)-1,3-bis(4-bromophenyl)-4-hydroxy-4,5-diphenylimidazolidin-2-one] | 10000 to 50000 | 
15 | CC(C)(C)c1cccc(C2(O)CN(c3ccc(Br)cc3)C(=O)N2c2ccc(Br)cc2)c1 (stereo not shown) [Compound 127, 1,3-bis(4-bromophenyl)-4-(3-(tert-butyl)phenyl)-4-hydroxyimidazolidin-2-one] | 10000 to 50000 | 
16 | Cc1ccc(N2C(=O)N(c3ccc(C#N)cc3)C3(CCC3)C2(O)c2cccc(C#N)c2)cc1 (stereo not shown) [Compound 280, 3-(5-(4-cyanophenyl)-8-hydroxy-6-oxo-7-(p-tolyl)-5,7-diazaspiro[3.4]octan-8-yl)benzonitrile] |  | < 1000
17 | C[C@@]1(c2ccccc2)C(O)N(c2ccc(Cl)cc2)C(=O)N1c1ccc(Cl)cc1 (single isomer, unassigned) [Example 223-2] | < 1000 | 
18 | O=C1N(c2ccc(Cl)cc2)C2(CC(F)(F)C2)C(O)(c2cccc(OC(F)(F)F)c2)N1c1ccc(Cl)cc1 (stereo not shown) [Compound 304, 5,7-bis(4-chlorophenyl)-2,2-difluoro-8-hydroxy-8-(3-(trifluoromethoxy)phenyl)-5,7-diazaspiro[3.4]octan-6-one] |  | < 1000
19 | CC(C)[C@H]1N(c2ccc(C(F)(F)F)cc2)C(=O)N(c2ccc(C(F)(F)F)cc2)C1(O)c1cccc(OC(F)(F)F)c1 (single isomer, unassigned) [Example 196-2] | < 1000 | 
20 | O=C1N(c2ccc(Br)cc2)C(=O)C(O)(c2cccs2)N1c1ccc(Br)cc1 (stereo not shown) [Example 205, 1,3-bis(4-bromophenyl)-5-hydroxy-5-(thiophen-2-yl)imidazolidine-2,4-dione] | 50000 to 100000 | 
21 | CCCc1c(C(=O)c2ccccc2)n(-c2ccc(Cl)cc2)c(=O)n1-c1ccc(Cl)cc1 [Example 27, 4-benzoyl-1,3-bis(4-chlorophenyl)-5-propyl-1,3-dihydro-2H-imidazol-2-one] | 10000 to 50000 | 
22 | CCC1N(c2ccc(Br)cc2)C(=O)N(c2ccc(Br)cc2)C1(O)c1cccc(C(F)(F)F)c1 (stereo not shown) [Compound 67, 1,3-bis(4-bromophenyl)-5-ethyl-4-hydroxy-4-(3-(trifluoromethyl)phenyl)imidazolidin-2-one] | < 1000 | 
23 | CC[C@@]1(C)N(c2ccc(C#N)cc2)C(=O)N(c2ccc(C#N)cc2)C1(O)c1cccc(OC(F)(F)F)c1 (stereo partly drawn) [Example 319-1, 4,4′-((4R)-4-ethyl-5-hydroxy-4-methyl-2-oxo-5-(3-(trifluoromethoxy)phenyl)imidazolidine-1,3-diyl)dibenzonitrile] |  | < 1000
24 | Cc1ccc(N2C(=O)N(c3ccc(C#N)cc3)C3(COC3)C2(O)c2cccc(OC(F)(F)F)c2)cc1 (stereo not shown) [Compound 277, 4-(8-hydroxy-6-oxo-7-(p-tolyl)-8-(3-(trifluoromethoxy)phenyl)-2-oxa-5,7-diazaspiro[3.4]octan-5-yl)benzonitrile] |  | < 1000
25 | CC1(C)N(c2ccc(Cl)cc2)C(=O)N(c2ccc(Cl)cc2)C1(O)c1cccc(C2COC2)c1 (stereo not shown) [Example 324-2, 1,3-bis(4-chlorophenyl)-4-hydroxy-5,5-dimethyl-4-(3-(oxetan-3-yl)phenyl)imidazolidin-2-one] |  | 1000 to 10000
26 | CCCCC1N(c2ccc(Cl)cc2)C(=O)N(c2ccc(Cl)cc2)C1(O)c1cccc(C#N)c1 (stereo not shown) [Compound 116, 3-(5-butyl-1,3-bis(4-chlorophenyl)-4-hydroxy-2-oxoimidazolidin-4-yl)benzonitrile] | < 1000 | 
27 | O=C1N(c2ccc(Br)cc2)C(=O)C(O)(c2cc3ccccc3s2)N1c1ccc(Br)cc1 (stereo not shown) [Example 214, 5-(benzo[b]thiophen-2-yl)-1,3-bis(4-bromophenyl)-5-hydroxyimidazolidine-2,4-dione] | 10000 to 50000 | 
28 | O=C1N(c2ccc(Br)cc2)C(=O)C(O)(c2cccc3ccccc23)N1c1ccc(Br)cc1 (stereo not shown) [Example 195, 1,3-bis(4-bromophenyl)-5-hydroxy-5-(naphthalen-1-yl)imidazolidine-2,4-dione] | > 50000 | 
